Marks after values point to notes of the source that are not given here.
Key:
CYP1A [1] = assay: Inhibition of ethoxyresorufin O-deethylation; format: in vitro ADME; conditions: rat hepatic microsomes; for Concentration that evidently inhibited EROD: Fig. 2
CYP1A1/2 = conditions: read-out: IC50 for CYP1A1/2; human microsomes; cited from earlier work
CYP2B6 = conditions: read-out: IC50 for CYP2B6; human microsomes; cited from earlier work
CYP2C8 = conditions: read-out: IC50 for CYP2C8; human microsomes; cited from earlier work
CYP2C9 = conditions: read-out: IC50 for CYP2C9; human microsomes; cited from earlier work
[2] = ref Food Safety Commission of Japan; cited from earlier work
CYP2C [3] = assay: Hepatic microsomal TBH activity after oral administration for five days; conditions: five consecutive days, P≤0.05
CYP1A [4] = assay: Hepatic microsomal EROD activity after oral administration for five days; conditions: five consecutive days, P≤0.05
CYP3A [5] = assay: Hepatic microsomal MDZH activity after oral administration for five days; conditions: five consecutive days, P≤0.05
cytochrome P450 = conditions: five days; for Effect of oral treatment on total CYP content: decrease seen at high dose, P≤0.05; for Total cytochrome content, High dose / Total cytochrome content, Low dose: male SD rats, oral, mean ± SD (n=5); for Total cytochrome content, High dose: one-tenth of LD50; for Total cytochrome content, Low dose: one-thirtieth of LD50
CYP = conditions: hen treated with tribufos; cited from earlier work
CYP1A [6] = conditions: read-out: Km of ethoxyresorufin reported in rats; cited from earlier work
CYP2C [7] = assay: Inhibition of tolbutamide hydroxylation; format: in vitro ADME, rat; conditions: at 1,000 µM
CYP2D [8] = assay: Inhibition of bufuralol 1'-hydroxylation; format: in vitro ADME, rat; conditions: at 1,000 µM
CYP3A [9] = assay: Inhibition of midazolam 4-hydroxylation; format: in vitro ADME, rat; conditions: at 1,000 µM
CYP2D [10] = assay: Hepatic microsomal BLH activity after oral administration for five days; conditions: five consecutive days, P≤0.05
CYP2D [11] = conditions: read-out: Km of bufuralol reported in rats; cited from earlier work
CYP1A [12] = conditions: cited from earlier work
CYP2D6 = conditions: read-out: IC50 for CYP2D6; human microsomes; cited from earlier work
CYP3A [13] = conditions: read-out: Km of midazolam reported in rats; cited from earlier work
CYP2C [14] = conditions: read-out: Km of tolbutamide reported in rats; cited from earlier work

Q: Which results are given for COP(=S)(OC)Oc1ccc([N+](=O)[O-])c(C)c1 [Fenitrothion, fenitrothion]?
A: Manner of EROD inhibition (CYP1A [1]): noncompetitive; Concentration that evidently inhibited EROD (CYP1A [1]): less than 1 µM; IC50 (CYP1A1/2): ~3000 nM; IC50 (CYP2B6): 2500 nM; IC50 (CYP2C8): 4300 nM; IC50 (CYP2C9): 4800 nM; Acceptable daily intake (ADI) [2]: 0.005 mg/kg/day; Microsomal activity of TBH compared with control group (CYP2C [3]): significantly higher; Microsomal activity of EROD compared with control group (CYP1A [4]): significantly lower; Microsomal activity of MDZH compared with control group (CYP3A [5]): significantly lower; Effect of oral treatment on total CYP content (cytochrome P450): not significantly affected; Total cytochrome content, High dose (cytochrome P450): 1.18 ± 0.23 nM/mg protein; Total cytochrome content, Low dose (cytochrome P450): 1.38 ± 0.51 nM/mg protein

Q: For CCCCSP(=O)(SCCCC)SCCCC [tribufos, S,S,S-tri-n-butyl phosphorotrithioate], which “Increase of CYP content in hepatic microsomes” value (CYP) is on record?
A: 2–3 fold

Q: Which Km (CYP1A [6]) does the source give for CCOc1ccc2nc3ccc(=O)cc-3oc2c1 [ethoxyresorufin] here?
A: 0.227 µM

Q: With COP(=O)(OC)OC=C(Cl)Cl [Dichlorvos, dichlorvos] as the molecule, how does the “Inhibitory effect on TBH” value (CYP2C [7]) read?
A: not evident

Q: And the “Inhibitory effect on BLH” value (CYP2D [8])?
A: not evident

Q: What about the “Inhibitory effect on MDZH” value (CYP3A [9]) of the same molecule?
A: not evident

Q: What about the “Microsomal activity of TBH compared with control group” value (CYP2C [3]) of the same molecule?
A: no significant effects

Q: What about the “Microsomal activity of BLH compared with control group” value (CYP2D [10]) of the same molecule?
A: no significant effects

Q: What about the “Microsomal activity of EROD compared with control group” value (CYP1A [4]) of the same molecule?
A: no significant effects

Q: What about the “Microsomal activity of MDZH compared with control group” value (CYP3A [5]) of the same molecule?
A: no significant effects

Q: And the “Effect of oral treatment on total CYP content” value (cytochrome P450)?
A: not significantly affected

Q: And the “Total cytochrome content, High dose” value (cytochrome P450)?
A: 1.75 ± 0.18 nM/mg protein

Q: What about the “Total cytochrome content, Low dose” value (cytochrome P450) of the same molecule?
A: 1.69 ± 0.40 nM/mg protein

Q: Which Km (CYP2D [11]) does the source give for CCc1cccc2cc(C(O)CNC(C)(C)C)oc12 (stereo not shown) [bufuralol] here?
A: 6.4 µM

Q: Which “Effect on hepatic CYP1A” value (CYP1A [12]) does the source give for CC1(C)C(C(=O)OC(C#N)c2cccc(Oc3ccccc3)c2)C1(C)C (stereo not shown) [fenpropathrin] here?
A: potent inhibitor of CYP1A

Q: With CCOC(=O)CC(SP(=S)(OC)OC)C(=O)OCC (stereo not shown) [malathion] as the molecule, how does the IC50 (CYP2C9) read?
A: 2500 nM

Q: For CCCSP(=O)(OCC)Oc1ccc(Br)cc1Cl (stereo not shown) [profenofos], which IC50 (CYP1A1/2) is on record?
A: ~3000 nM

Q: With CCOC(=O)C(SP(=S)(OC)OC)c1ccccc1 (stereo not shown) [phenthoate] as the molecule, how does the IC50 (CYP2D6) read?
A: ~3000 nM

Q: Which Km (CYP3A [13]) does the source give for Cc1ncc2n1-c1ccc(Cl)cc1C(c1ccccc1F)=NC2 [midazolam] here?
A: 22 µM

Q: With CCCCNC(=O)NS(=O)(=O)c1ccc(C)cc1 [tolbutamide] as the molecule, how does the Km (CYP2C [14]) read?
A: 1910 µM

Q: With CCOP(=S)(OCC)Oc1nc(Cl)c(Cl)cc1Cl [Chlorpyrifos, chlorpyrifos] as the molecule, how does the “Manner of EROD inhibition” value (CYP1A [1]) read?
A: noncompetitive

Q: And the “Concentration that evidently inhibited EROD” value (CYP1A [1])?
A: less than 1 µM

Q: What about the IC50 (CYP1A1/2) of the same molecule?
A: ~3000 nM

Q: What about the IC50 (CYP2B6) of the same molecule?
A: 2500 nM

Q: And the IC50 (CYP2D6)?
A: ~3000 nM

Q: What about the “Acceptable daily intake (ADI)” value [2] of the same molecule?
A: 0.001 mg/kg/day

Q: And the “Microsomal activity of TBH compared with control group” value (CYP2C [3])?
A: no significant effects

Q: And the “Microsomal activity of BLH compared with control group” value (CYP2D [10])?
A: no significant effects

Q: And the “Microsomal activity of EROD compared with control group” value (CYP1A [4])?
A: no significant effects

Q: What about the “Microsomal activity of MDZH compared with control group” value (CYP3A [5]) of the same molecule?
A: no significant effects

Q: What about the “Effect of oral treatment on total CYP content” value (cytochrome P450) of the same molecule?
A: significantly decreased

Q: What about the “Total cytochrome content, High dose” value (cytochrome P450) of the same molecule?
A: 1.30 ± 0.48^a) nM/mg protein

Q: And the “Total cytochrome content, Low dose” value (cytochrome P450)?
A: 1.69 ± 0.18 nM/mg protein

Q: For CC1(C)C(C=C(Cl)Cl)C1C(=O)OCc1cccc(Oc2ccccc2)c1 (stereo not shown) [permethrin], which “Effect on hepatic CYP1A” value (CYP1A [12]) is on record?
A: potent inhibitor of CYP1A

Reference: article PMC7273600 (The Journal of Veterinary Medical Science, 2020)
